Values joined by “and” are separate entries in the source; they are usually repeats but may differ in a detail not shown here. Equal values may be shown once.

In experiment [1] the target is T1, PPARγ (Homo sapiens, UniProt P37231).
T1 construct: expressed in transfected cells; host or cells: HEK 293 T cells
T1 sequence (P37231 1-505): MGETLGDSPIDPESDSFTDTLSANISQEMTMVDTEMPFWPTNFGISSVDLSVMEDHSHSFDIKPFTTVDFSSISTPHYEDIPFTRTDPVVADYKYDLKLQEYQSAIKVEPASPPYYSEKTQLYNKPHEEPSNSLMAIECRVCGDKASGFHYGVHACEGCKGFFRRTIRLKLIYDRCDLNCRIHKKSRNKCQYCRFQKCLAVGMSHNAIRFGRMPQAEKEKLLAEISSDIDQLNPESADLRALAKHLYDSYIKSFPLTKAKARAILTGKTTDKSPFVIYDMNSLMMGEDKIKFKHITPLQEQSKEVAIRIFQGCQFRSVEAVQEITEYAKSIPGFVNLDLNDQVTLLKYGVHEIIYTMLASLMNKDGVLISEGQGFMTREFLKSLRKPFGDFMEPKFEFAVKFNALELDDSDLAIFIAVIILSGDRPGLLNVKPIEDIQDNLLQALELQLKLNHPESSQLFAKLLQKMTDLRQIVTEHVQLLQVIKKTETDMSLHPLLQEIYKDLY
Description: In vitro transcriptional activity of PPARγ gene (PPRE-luciferase reporter, HEK 293 T cells). The following applies: HEK 293 T cells transfected with PPARγ expression and PPRE-luc plasmids, 21 hours; read-out: EC50 of PPARγ gene activation. Format: cell-based. A general note: Reporter assays use an easily measured gene product as a stand-in for the process of interest.

For experiment [2], the system named is klotho gene promoter. In words: In vitro transcriptional activity of klotho gene (KL-Luc-3 luciferase cell line). The experiment is classed as cell-based. The note with it: KL-Luc-3 cells; for EC50: 16 h, 16 hours incubation. The source says: The activities of these carbonyl-containing cyclic compounds are indicated by the increased expression of klotho gene. […] The present invention retains the DNA fragment of the klotho gene promoter, but replaces the DNA sequence of the coding region of the klotho gene with those of luciferase, so that the degree of activation of the klotho gene promoter and the expression of the klotho gene will be sensitively determined by detecting the luciferase luminescence signal.
Klotho is an important downstream gene of PPARγ pathway. The following experiments tested the properties of the compounds in Table 2 and 3 to activate the klotho gene in vitro. First, a stable cell line, KL-Luc, was constructed. The klotho gene carried by the cell line retained the DNA sequence of klotho gene promoter, but the coding sequence of the klotho gene was replaced with luciferase. KL-Luc fragment includes a promoter sequence of the klotho gene (a DNA region of 18,000 base pairs in length upstream of the transcription start site of the gene) and a luciferase-encoding sequence. To construct the KL-Luc sequence containing lentiviral vector, the KL-Luc fragment was cloned into the pDONR vector using BP recombinase, so that the target fragment had attL recombination sites on both sides. Then the KL-Luc fragment was transferred from the pDONR vector to a lentiviral vector (without exogenous promoter) pLenti6/BLOCK-IT-DEST. The constructed lentiviral vector of the target fragment was then transfected into HEK293T cells, and then the KL-Luc gene lentiviral expression vector and the […] were co-transfected into HEK293T cells to perform lentiviral packaging. The virus was harvested, and virus titer was calculated. And the lentivirus was used to infect target cells. The stable strains were screened by adding drugs. Finally, monoclonal cell lines were selected from polyclonal cells by cell cloning. The effective luciferase expression of each monoclonal cell line was determined by quantitative polymerase chain reaction (qPCR). The inventors chose a third monoclonal cell line (KL-Luc-3) to continue the compound screening. The compounds of interest were the compounds in Table 2 and 3. At the same time, rosiglitazone and pioglitazone were used as a control. KL-Luc-3 cells were divided into 96-well plates at 5000 cells in 80 microL per well, cultured in a 37° C. carbon dioxide incubator with serum-free Duchenne's Modified Eagle's Medium (DMEM) for 6 hours, and then the compounds were added to a final concentration of 0, 0.1, 0.3, 1, 3, 10, 30 micromole/L, with each concentration in triplicate. After 16 hours of incubation, the SteadyLite (PerkinElmer, Waltham, MA) and the GloMax Microplate Luminometer (Promega, USA) were used for quantitation of luciferase activity. The amount of luminescence emitted from each well is positively related to the transcriptional activity of the klotho promoter. A three-parameter Sigmoid function curve was used to fit the obtained data. The abscissa represents the logarithmic value of the concentration, and the ordinate represents the percentage of the activity relative to those of the control. […] In Statistical analysis, the coefficient of variation is used to measure the robustness and repeatability of the experiment. […] The difference is significant with P<0.05. EC50 is a parameter of its activity. The lower the EC50 value, the higher the activity of corresponding compound.

Experiment [3] deals with MPTP-HCl Parkinson's disease model mice. In words: Parkinson's disease model (MPTP-HCl), beam traversal test. The note with it: MPTP-HCl/probenecid mice, 5 mg/kg body weight intraperitoneal daily, 35 days.
Description: Three month-old male wild type mice were used in the experiment. The treatment lasted for a total of 35 days. […] For all abovementioned groups, Motor skills were assessed on the 36th to 40th days after compound administration. Beam traversal test is a method commonly used in academia to detect movement coordination in animals with Parkinson's disease. […] The mice were first trained for 2 consecutive days, and taught to trained to traverse the length of the beam. On the day of the test, a mesh grid (1 cm squares) of corresponding width was placed over the beam surface leaving a ˜1 cm space between the grid and the beam surface. Animals were then videotaped while traversing the grid-surfaced beam for a total of five trials. An error was counted when, during a forward movement, a forelimb or hindlimb slipped through the grid. The number of errors made per step (referred to as “error per step scores”) was counted. An analysis of variance (ANOVA) and Dunnett post hoc comparison test are used to compare the significance of the differences between different groups of data. The difference is significant with P<0.05.

Consider `CCc1ccc(CC/C=C/c2ccc3c(c2)C(=O)CC3)cc1` [ELB00824, (E)-6-(4-(4-ethylphenyl)but-1-en-1-yl)-2,3-dihydro-1H-inden-1-one], for which the EC50 (commonly the concentration giving half of the maximal effect) in experiment [1] was < 6.4 µM and 4.7 µM. In addition, in experiment [2], the EC50 is 1.5 µM, the “induced transcriptional activity of klotho gene relative to pioglitazone” value is “more than 66 folds”, the “induced transcriptional activity of klotho gene relative to rosiglitazone” value is listed as 6 folds and the “klotho EC50 as fraction of that of pioglitazone” value is “less than 1/67”. Further, in experiment [2], the “klotho EC50 as fraction of that of rosiglitazone” value is on record as 1/6.

`CCc1ccc(CC/C=C/c2ccc3c(c2)OCCC3=O)cc1` [ELB001045, (E)-7-(4-(4-ethylphenyl)but-1-en-1-yl)chroman-4-one]: the EC50 in experiment [1] was < 6.4 µM and 3.5 µM; in experiment [2], less than 9.7 µM. The “number of errors per step in beam traversal test compared with disease control group” value in experiment [3] is “significantly lower”.

With `CCc1ccc(CC/C=C/c2ccc3c(c2)C(=O)COC3)cc1` [ELB001046, (E)-6-(4-(4-ethylphenyl)but-1-en-1-yl)isochroman-4-one], in experiment [1], the EC50 was less than 6.4 µM. Besides, the “number of errors per step in beam traversal test compared with disease control group” value in experiment [3] was “significantly lower”.

Consider `CCc1ccc(OC/C=C/c2ccc3c(c2)C(=O)CC3)cc1` [ELB001115, (E)-6-(3-(4-ethylphenoxy)prop-1-en-1-yl)-2,3-dihydro-1H-inden-1-one], for which the EC50 in experiment [1] is < 6.4 µM and 4.8 µM; in experiment [2] it was less than 9.7 µM. In addition, the “number of errors per step in beam traversal test compared with disease control group” value in experiment [3] was “significantly lower”.

As for `COc1ccc(CC/C=C/c2ccc3c(c2)C(=O)CC3)cc1` [ELB001116, (E)-6-(4-(4-methoxyphenyl)but-1-en-1-yl)-2,3-dihydro-1H-inden-1-one], the EC50 in experiment [1] was less than 6.4 µM; in experiment [2], less than 9.7 µM. Further, the “number of errors per step in beam traversal test compared with disease control group” value in experiment [3] is reported as “significantly lower”.

Turning to `CCc1ccc(CC/C=C/c2ccc3c(c2)C(=O)CC3)nc1` [ELB001125, (E)-6-(4-(5-ethylpyridin-2-yl)but-1-en-1-yl)-2,3-dihydro-1H-inden-1-one], the EC50 is less than 6.4 µM in experiment [1] and less than 9.7 µM in experiment [2]. Besides, the “number of errors per step in beam traversal test compared with disease control group” value in experiment [3] is recorded as “significantly lower”.

For the origin of these results see patent US12545653B2, “Compound as PPAR agonist and application thereof” (USA Elixiria Biotech Inc., priority 2019, dated 2026).
